Data on 1 molecule can be found in patent publication US11285119B2, “Anti-inflammatory composition” (NEOPHARM CO., LTD., priority 2016, dated 2022).

One data set deals with IL-17A. The experiment in a line: Anti-inflammatory effect: IL-17A expression in atopic dermatitis-induced 3D culture tissue (immunohistochemistry). It counts as cell-based. The following applies: compared with the skin model in which atopic dermatitis was induced, 72 hours, quantified immunohistochemistry (FIG. 2), read-out: IL-17A inhibitory effect. The protocol:
(§1) In order to measure the anti-inflammatory efficacy, atopic dermatitis was induced with respect to IL-8 and IL-17A, which are inflammation-inducing cytokines, and expression amounts thereof were measured.
(§2) In order to induce atopic dermatitis, the 3D culture tissue (EpiDerm Full Thickness 400, sold by MatTek) media containing Poly (I:C), TNF-α, IL-4 and IL-13 were used, and treated for 72 hours with N-(2-hydroxyethyl)octanamide at a final concentration of 100 μM. Then, the 3D culture tissue was immobilized on formalin to make a paraffin block, and the degree of expression of inflammation-inducing cytokine was evaluated.
(§3) In FIG. 1, AD represents a skin model in which atopic dermatitis was induced, and the anti-inflammatory effect was evaluated based on the expression amounts of IL-8 and IL-17A.
(§4) Further, the inhibitory effect of each cytokine was quantified based on the results obtained through the immunohistochemistry obtained in FIG. 1, and shown in FIG. 2.

Data set [1] has as its system human fibroblast (ATCC 2076). As to the kind of experiment: Confirmation of cytotoxicity (MTT cell viability). The following applies: for Cell viability (%): human fibroblast, MTT. The class given is cell-based. The procedure: The cell viability for human fibroblast (ATCC 2076) was measured using the anti-inflammatory composition prepared in the following Examples.
The human fibroblast (ATCC 2076) with a concentration of 5×10^4 cells/ml was inoculated into a 24-well culture plate of Iscove's Modified Dulbecco's Medium (IMDM, GIBCO) containing 10% bovine serum. […] Then, the supernatant was removed, the cells were washed with 200 μl of 5% phosphate buffered saline (PBS), 1.0 ml of MTT solution was added to each well, and after 4 hours, and the MTT was removed. Next, 1.0 ml of DMSO was added to each well, and incubation was performed overnight at 37° C. The absorbance at 570 nm was measured to determine the cell viability using Equation 1 below, and results thereof are shown in Table 1 below. Here, as a negative control group, a test group in which the active ingredient was not used was adopted. Cell viability (%)=(A570λvalue/B570λvalue)×100 [Equation 1]
A: Absorbance value at 570 nm of Example
B: Absorbance value at 570 nm of negative control group

The next data set concerns IL-8. As to the kind of experiment: Anti-inflammatory effect: IL-8 expression in atopic dermatitis-induced 3D culture tissue (immunohistochemistry). The class given is cell-based. As to conditions: compared with the skin model in which atopic dermatitis was induced, 72 hours, quantified immunohistochemistry (FIG. 2), read-out: IL-8 inhibitory effect. The procedure:
as §1, §2, §3, §4

A further data set concerns atopic dermatitis. The experiment in a line: Atopic dermatitis improvement effect (EASI score) in pediatric patients. The class given is in vivo, human. As to conditions: 30 pediatric patients with atopic dermatitis, twice a day for 4 weeks. The protocol:
In order to measure atopic dermatitis improvement effect, the anti-inflammatory compositions were prepared according to the following Examples. Here, the atopic dermatitis improvement effect was measured using an eczema area severity index (EASI) score. 30 pediatric patients with atopic dermatitis were treated twice a day for 4 weeks, and then effects on atopic symptoms were measured.

Take `CCCCC(CC)C(=O)NC(CO)CO` (stereo not shown) [Example 1, N-(1,3-dihydroxypropan-2-yl)-2-ethylhexanamide]: the results for the inhibition at 100 µM with IL-17A and in the data set with IL-8 were no less than 58.9% and no less than 48.5%, respectively. In addition, in data set [1] (in the concentration range of the evaluation method), the Cytotoxicity entry was “no cytotoxicity”. The “Cell viability (%)” value is 110% in data set [1] (used amount 0.00064 μM); 106% in data set [1] (used amount 0.0032 μM); 99% in data set [1] (used amount 0.016 μM); 100% in data set [1] (used amount 0.08 μM); 98% in data set [1] (used amount 0.4 μM); 101% in data set [1] (used amount 2 μM). For the same molecule, the “Cell viability (%)” value in data set [1] (used amount 10 μM) amounted to 101%; in data set [1] (used amount 50 μM), 101%; in data set [1] (used amount 250 μM), 108%. The “Atopic dermatitis improvement effect (EASI score)” value with atopic dermatitis is listed as “significant numerical decrease”.
